# Results reported in BindingDB's records for doi:10.1016/s0960-894x(99)00425-4 (Merck Research Laboratorie, 1999).
# Target: Beta-lactamase CcrA (Bacteroides fragilis)
# Assay: Inhibitory activity against CCRA (Bacteroides fragilis) metallo-beta-lactamase
compound,measurement,value
CC(=O)S[C@H](Cc1ccccc1)C(=O)O [(R)-2-Acetylsulfanyl-3-phenyl-propionic acid],IC50,> 1000 µM
CC(=O)S[C@H](Cc1ccc(-c2ccccc2)cc1)C(=O)O [(R)-2-Acetylsulfanyl-3-biphenyl-4-yl-propionic acid],IC50,750 µM
CC(C)C(=O)N[C@H](C)C(=O)S[C@H](Cc1ccc(-c2ccccc2)cc1)C(=O)O [(R)-3-Biphenyl-4-yl-2-((R)-2-isobutyrylamino-propionylsulfanyl)-propionic acid],IC50,> 1500 µM
O=C(S[C@H](Cc1ccccc1)C(=O)O)c1ccccc1 [(R)-2-Benzoylsulfanyl-3-phenyl-propionic acid],IC50,> 1000 µM
C[C@@H](NC(=O)c1ccccc1)C(=O)S[C@H](Cc1ccc(-c2ccccc2)cc1)C(=O)O [(R)-2-((R)-2-Benzoylamino-propionylsulfanyl)-3-biphenyl-4-yl-propionic acid],IC50,1000 µM
CC(=O)S[C@H](Cc1ccc2oc3ccccc3c2c1)C(=O)O [(R)-2-Acetylsulfanyl-3-dibenzofuran-2-yl-propionic acid],IC50,> 500 µM
CC(=O)N[C@H](C)C(=O)S[C@H](Cc1ccccc1)C(=O)O [(R)-2-((R)-2-Acetylamino-propionylsulfanyl)-3-phenyl-propionic acid],IC50,> 1000 µM
C[C@@H](NC(=O)c1ccccc1)C(=O)S[C@H](Cc1ccc2oc3ccccc3c2c1)C(=O)O [(R)-2-((R)-2-Benzoylamino-propionylsulfanyl)-3-dibenzofuran-2-yl-propionic acid],IC50,680 µM
C[C@@H](NC(=O)Cc1ccccc1)C(=O)S[C@H](Cc1ccc(-c2ccccc2)cc1)C(=O)O [(R)-3-Biphenyl-4-yl-2-((R)-2-phenylacetylamino-propionylsulfanyl)-propionic acid],IC50,> 1500 µM
C=CCOC(=O)N[C@H](C)C(=O)S[C@H](Cc1ccc2oc3ccccc3c2c1)C(=O)O [(R)-2-((R)-2-Allyloxycarbonylamino-propionylsulfanyl)-3-dibenzofuran-2-yl-propionic acid],IC50,> 1500 µM
CC(=O)N[C@H](C)C(=O)S[C@H](Cc1ccc(-c2ccccc2)cc1)C(=O)O [(R)-2-((R)-2-Acetylamino-propionylsulfanyl)-3-biphenyl-4-yl-propionic acid],IC50,1000 µM
C[C@@H](NC(=O)CCC(=O)O)C(=O)S[C@H](Cc1ccc(-c2ccccc2)cc1)C(=O)O [N-[(R)-1-((R)-2-Biphenyl-4-yl-1-carboxy-ethylsulfanylcarbonyl)-ethyl]-succinamic acid],IC50,> 1500 µM
C[C@@H](NC(=O)Cc1cccc2ccccc12)C(=O)S[C@H](Cc1ccc(-c2ccccc2)cc1)C(=O)O [(R)-3-Biphenyl-4-yl-2-[(R)-2-(2-naphthalen-1-yl-acetylamino)-propionylsulfanyl]-propionic acid],IC50,> 1500 µM
CCC(=O)N[C@H](C)C(=O)S[C@H](Cc1ccc(-c2ccccc2)cc1)C(=O)O [(R)-3-Biphenyl-4-yl-2-((R)-2-propionylamino-propionylsulfanyl)-propionic acid],IC50,> 1500 µM
O=C(O)[C@H](S)Cc1ccc(-c2ccccc2)cc1 [(R)-3-Biphenyl-4-yl-2-mercapto-propionic acid],IC50,750 µM
O=C(O)[C@H](S)Cc1ccc2oc3ccccc3c2c1 [(R)-3-Dibenzofuran-2-yl-2-mercapto-propionic acid],IC50,9.9 µM
C[C@@H](NC(=O)c1ccccc1)C(=O)SCC(=O)O [(R)-2-(2-benzamidopropanoylthio)acetic acid],IC50,> 1000 µM
C[C@@H](NC(=O)COc1ccccc1)C(=O)S[C@H](Cc1ccc(-c2ccccc2)cc1)C(=O)O [(R)-3-Biphenyl-4-yl-2-[(R)-2-(2-phenoxy-acetylamino)-propionylsulfanyl]-propionic acid],IC50,930 µM
